Experimental findings from US10398720B2, “Compound of the avermectin family or of the milbemycin family for the treatment and/or prevention of atopic dermatitis” (GALDERMA SA, priority 2013, dated 2019) are described below.

The assay relates to Der f-induced AD mouse model. Description: Dermatophagoides farinae (Der f)-induced atopic dermatitis (AD)-like mouse model, topical route. The class given is in vivo, Balb/c mice. Particulars: for cytokine concentration / production (IL-10, IL-13, IL-17, IL-4, IL-5, IFNg; FIG. 5): 0.1% ivermectin; for inflammatory response induced by Der f application: topical daily day 19 to day 36, solutions in acetone, ivermectin 0.003-0.1%; for ear edema (ear thickness, FIG. 1): topical daily day 19 to day 36. How it is done:
1.1. […] Der f has been purchased from Greer Laboratories and a Der f solution has been prepared at 12.5 mg/ml in 70% DMSO in MilliQ water. […] Balb/c mice strain has been used for the study. These animals have been obtained from controlled breeding and were specific pathogen free. The animals have been provided by Janvier SAS, France. AD-like lesions have been induced once a week by topical application of 20 μl of Der f solution on the right ear for 5 weeks at […], day 29 and day 36. Mice have been daily treated from day 19 to day 36 with the different solutions administrated by the topical route. Measurement of ear thickness have been monitored before and 24 hours after each allergen application. After day 19, ears have been daily measured before compound application. Blood samples have been collected into appropriate vials under isoflurane anaesthesia for further analysis (IgE). Mice have been then immediately euthanized. After mouse euthanasia, the right ear has been collected and has been washed in ethanol 70% and has been rinsed in PBS. Three skin biopsies have then been collected for cytokines profiles, eosinophil peroxidase (EPO) quantification and histological slides in order to quantify the mastocytes and in order to measure the epidermis thickness.

The mark [1] stands for this setting: right ear skin biopsy, 0.05% triamcinolone acetonide, 0.1% tacrolimus.
Where [2] appears, read: 0.05% triamcinolone acetonide, 0.1% tacrolimus.
Where [3] appears, read: 0.05% triamcinolone acetonide, 0.1% tacrolimus, ivermectin 0.003, 0.01, 0.03 and 0.1%.
[4] abbreviates: histological slides, 0.05% triamcinolone acetonide, ivermectin 0.003, 0.01, 0.03 and 0.1%.

`C=CC[C@@H]1/C=C(\C)C[C@H](C)C[C@H](OC)[C@H]2O[C@@](O)(C(=O)C(=O)N3CCCC[C@H]3C(=O)O[C@H](/C(C)=C/[C@@H]3CC[C@@H](O)[C@H](OC)C3)[C@H](C)[C@@H](O)CC1=O)[C@H](C)C[C@@H]2OC` [tacrolimus]: the “cytokine concentration / production (IL-10, IL-13, IL-17, IL-4, IL-5, IFNg; FIG. 5)” value under setting [1] is “totally reduces”. Also, the “interleukin IL-17 production (FIG. 5)” value (right ear skin biopsy, 0.1% tacrolimus) was “totally reduces”. Besides, under setting [2], the “inflammatory response induced by Der f application” value is “completely inhibit”. The “ear edema (ear thickness, FIG. 1)” value under setting [3] was “totally reduces”.
Take Ivermectin: under “blood sample, 0.05% triamcinolone acetonide, ivermectin 0.003, 0.01, 0.03 and 0.1%”, the “IgE secretion (total seric IgE, FIG. 4)” value is “significantly decreases”. For the same compound, under setting [4], the “epidermal thickness (FIG. 2)” value is “lessens” and the “mastocyte count (within the dermis, FIG. 6)” value is “lessens”. Also, the “dose response of the anti-inflammatory activity” value (ivermectin 0.003 to 0.1% topical) is recorded as “inverse dose response”. The “anti-inflammatory response, higher concentrations” value (ivermectin 0.01, 0.03 and 0.1% topical, compared with 0.003%) is given as “less potent than the weakest concentration (0.003%)”. For the same compound, the “inflammatory response, compared with positive controls” value (ivermectin at 0.003% topical vs triamcinolone acetonide at 0.05% and tacrolimus at 0.1%) is “to the same extent as triamcinolone acetonide at 0.05% and as tacrolimus at 0.1%”. In addition, the “EPO (eosinophil peroxidase, FIG. 3)” value (right ear skin biopsy, 0.05% triamcinolone acetonide, ivermectin 0.003, 0.01 and 0.03%) was “significantly decreases”. Further, the “cytokine concentration / production (IL-10, IL-13, IL-17, IL-4, IL-5, IFNg; FIG. 5)” value under setting [1] is recorded as “significantly decreases”. For the same compound, the “inflammatory response induced by Der f application” value under setting [2] is reported as “able to reduce”. Also, the “ear edema (ear thickness, FIG. 1)” value under setting [3] was “significantly decreases”.
